The results in this text go back to BindingDB's records for doi:10.1021/jm981033g (University of Antwerp (Uia), 1999).

Each structure is given as a SMILES string.

By IC50 is commonly meant the concentration needed to halve the response being measured.

Assay [1] is described as follows: Effect on the activity of prolyl endopeptidase (PEP) was evaluated at 1 mM concentration for DPP IV.
Assay [2] can be described thus: Effect on the activity of prolyl endopeptidase (PEP) was evaluated at the IC50 concentration for DPP IV and.

For the compound `CC(=O)Nc1cccc(OP(=O)(Oc2cccc(NC(C)=O)c2)C2CCCN2C(=O)C2CCCN2)c1` (configuration not stated) [2-{2-[Bis-(3-acetylamino-phenoxy)-phosphoryl]-pyrrolidine-1-carbonyl}-pyrrolidinium; chloride], the IC50 was 50 µM in assay [1] and 89 µM in assay [2].
